Patent publication US20240115654A1, “INTRAVENOUS ADMINISTRATION OF ENGINEERED ANTIMICROBIAL AMPHIPHILIC PEPTIDES” (priority 2021, published 2024)
Converted amounts (≈) assume the structure as drawn. Like-named read-outs stand apart in the source and are kept apart here. Peptide text beside a SMILES is read from it.

Key:
Assay type in all cases: cell-based
[1] = test system: Pseudomonas aeruginosa ATCC BAA-2109 (MDR); settings: Pseudomonas aeruginosa ATCC BAA-2109 (MDR)
Method in brief: (§1)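 Broth microdilution per CLSI in Mueller Hinton II broth with 0.002% polysorbate 80; SEQ ID NO:5 and 8 stocks in DMSO (2.5% final at top dilution), others in PBS; top test concentration 32 mcg/mL. Inoculum ~5×10^5 CFU/mL, 35° C for 16–20 hrs; MIC = lowest concentration preventing visible growth.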

[2] = test system: Enterococcus faecium ATCC 51559 (VRE); settings: Enterococcus faecium ATCC 51559 (VRE)
Method in brief: as §1

[3] = test system: Acinetobacter baumannii ATCC 19606 (non-MDR); settings: Acinetobacter baumannii ATCC 19606 (non-MDR)
Method in brief: as §1

[4] = test system: Streptococcus pyogenes ATCC 49399; settings: Streptococcus pyogenes ATCC 49399
Method in brief: as §1

[5] = test system: Escherichia coli ATCC 25922 (QC)
Method in brief: as §1

[6] = test system: Streptococcus pneumoniae ATCC 49619 (QC); settings: Streptococcus pneumoniae ATCC 49619 (QC)
Method in brief: as §1

[7] = test system: Escherichia coli ATCC 35218 (ESBL); settings: Escherichia coli ATCC 35218 (ESBL)
Method in brief: as §1

[8] = test system: Streptococcus agalactiae ATCC 13813
Method in brief: as §1

[9] = test system: Staphylococcus aureus NRS382 (USA100; HA-MRSA)
Method in brief: as §1

[10] = test system: Staphylococcus aureus ATCC 29213 (MSSA; QC); settings: Staphylococcus aureus ATCC 29213 (MSSA; QC)
Method in brief: as §1

[11] = test system: Enterococcus faecalis ATCC 700802 (V583 VRE)
Method in brief: as §1

Work on CC(C)[C@H](NC(=O)[C@H](Cc1c[nH]c2ccccc12)NC(=O)[C@H](CCCNC(=N)N)NC(=O)[C@H](CCCNC(=N)N)NC(=O)[C@@H](NC(=O)[C@@H](NC(=O)[C@H](CCCNC(=N)N)NC(=O)[C@@H](NC(=O)[C@@H](NC(=O)[C@H](CCCNC(=N)N)NC(=O)[C@H](CCCNC(=N)N)NC(=O)[C@H](Cc1c[nH]c2ccccc12)NC(=O)[C@@H](NC(=O)[C@H](CCCNC(=N)N)NC(=O)[C@H](CCCNC(=N)N)NC(=O)[C@@H](NC(=O)[C@H](CCCNC(=N)N)NC(=O)[C@H](CCCNC(=N)N)NC(=O)[C@@H](NC(=O)[C@H](Cc1c[nH]c2ccccc12)NC(=O)[C@H](CCCNC(=N)N)NC(=O)[C@@H](N)CCCNC(=N)N)C(C)C)C(C)C)C(C)C)C(C)C)C(C)C)C(C)C)C(C)C)C(=O)N[C@@H](CCCNC(=N)N)C(=O)N[C@@H](CCCNC(=N)N)C(N)=O [SEQ ID NO: 1] (H-RRWVRRVRRVWRRVVRVVRRWVRR-NH2) yielded an MIC [1] of 4 µg/mL (≈ 1.18 µM), an MIC [2] of 2 µg/mL (≈ 0.588 µM) and an MIC [3] of 2 µg/mL (≈ 0.588 µM). The MIC [4] was 8 µg/mL (≈ 2.35 µM), the MIC ([5]; ATCC 25922) was 4 µg/mL (≈ 1.18 µM) and the MIC [6] was 16 µg/mL (≈ 4.71 µM). It also gave an MIC [7] of 8 µg/mL (≈ 2.35 µM), an MIC [8] of 8 µg/mL (≈ 2.35 µM) and an MIC ([9]; USA100) of 4 µg/mL (≈ 1.18 µM). It also gave an MIC [10] of 8 µg/mL (≈ 2.35 µM) and an MIC ([11]; ATCC 700802) of 4 µg/mL (≈ 1.18 µM).

Molecule Colistin [reference compound] has an MIC [1] of 0.12 µg/mL, an MIC [2] greater than 32 µg/mL and an MIC [3] of 0.25 µg/mL. For the same molecule, the MIC [4] was greater than 32 µg/mL, the MIC ([5]; Escherichia coli ATCC 25922 (QC)) was 0.12 µg/mL and the MIC [6] was greater than 32 µg/mL. For the same molecule, the MIC [7] was 0.12 µg/mL, the MIC [8] was greater than 32 µg/mL and the MIC ([9]; Staphylococcus aureus NRS382 (USA100; HA-MRSA)) was greater than 32 µg/mL. The MIC [10] was greater than 32 µg/mL and the MIC ([11]; Enterococcus faecalis ATCC 700802 (V583 VRE)) was greater than 32 µg/mL.
